From patent publication US20100298141A1, “SUBSTITUTED PYRIDINE N-OXIDE HERBICIDES” (E. I. DU PONT DE NEMOURS AND COMPANY, priority 2007, published 2010)

Assays:
[1] = tested on: Surinam grass; assay: Test C pre-/postemergence test; format: in vivo, Brachiaria decumbens; conditions: for Surinam Grass plant response rating: preemergence, scale 0 (no effect) to 100 (complete control); for Plant response rating, Surinam Grass: scale 0 to 100, 0 no effect, 100 complete control
Procedure, shortened: (§1)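 Compounds in a non-phytotoxic solvent with surfactant applied preemergence to seeded pots and, at the same time, postemergence to plants 2–18 cm tall (1- to 4-leaf stage). Paddy tests: pots flooded to 3 cm, compound applied into the water, depth held throughout.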

[2] = tested on: wheat; assay: Test A pre-/postemergence greenhouse test; format: in vivo, Triticum aestivum; conditions: for Wheat plant response rating: 0 to 100 scale
Procedure, shortened: (§2)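 Sowing in loam/sand; same-day pre (directed soil spray) and post (foliar, 1–2 leaf, 2–10 cm) treatment with surfactant-containing non-phytotoxic solvent formulation; ~10 days in greenhouse; eye-scored injury against untreated plants.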

[3] = tested on: woolly cupgrass; assay: Test C pre-/postemergence test; format: in vivo, Eriochloa villosa; conditions: for Plant response rating, Cupgrass, Woolly: scale 0 to 100, 0 no effect, 100 complete control
Procedure, shortened: as §1

[4] = tested on: blackgrass; assay: Test C pre-/postemergence test; format: in vivo, Alopecurus myosuroides; conditions: Postemergence; for Plant response rating, Blackgrass: scale 0 to 100, 0 no effect, 100 complete control
Procedure, shortened: as §1

[5] = tested on: giant foxtail; assay: Test A pre-/postemergence greenhouse test; format: in vivo, Setaria faberi; conditions: for Foxtail, Giant plant response rating: 0 to 100 scale
Procedure, shortened: as §2

[6] = tested on: downy brome; assay: Test C pre-/postemergence test; format: in vivo, Bromus tectorum; conditions: Postemergence; for Plant response rating, Bromegrass, Downy: scale 0 to 100, 0 no effect, 100 complete control
Procedure, shortened: as §1

[7] = tested on: cocklebur; assay: Test C pre-/postemergence test; format: in vivo, Xanthium strumarium; conditions: for Plant response rating, Cocklebur: scale 0 to 100, 0 no effect, 100 complete control
Procedure, shortened: as §1

[8] = tested on: velvetleaf; assay: Test C pre-/postemergence test; format: in vivo, Abutilon theophrasti; conditions: for Plant response rating, Velvetleaf: scale 0 to 100, 0 no effect, 100 complete control
Procedure, shortened: as §1

[9] = tested on: common ragweed; assay: Test C pre-/postemergence test; format: in vivo, Ambrosia elation; conditions: for Plant response rating, Ragweed: scale 0 to 100, 0 no effect, 100 complete control
Procedure, shortened: as §1

[10] = tested on: eastern black nightshade; assay: Test C pre-/postemergence test; format: in vivo, Solanum ptycanthum
From the text: Seeds of plant species selected from blackgrass (Alopecurus myosuroides), downy brome (Bromus tectorum), green foxtail (Setaria viridis), Italian ryegrass (Lolium multiflorum), wheat (Triticum aestivum), wild oat (Avena fatua), catchweed bedstraw (Galium aparine), Russian thistle (Salsola kali), […] (Cynodon dactylon), Surinam grass (Brachiaria decumbens), cocklebur (Xanthium strumarium), corn (Zea mays), crabgrass (Digitaria sanguinalis), woolly cupgrass (Eriochloa villosa), giant foxtail (Setaria faberii), Goosegrass (Eleusin indica), johnsongrass (Sorghum halepense), kochia (Kochia scoparia), lambsquarters (Chenopodium album), morningglory (Ipomoea coccinea), eastern black nightshade (Solanum ptycanthum), yellow nutsedge (Cyperus esculentus), pigweed (Amaranthus retroflexus), common ragweed (Ambrosia elation), soybean (Glycine max), common (oilseed) sunflower (Helianthus annuus), and velvetleaf (Abutilon theophrasti) were planted and treated preemergence with test chemicals formulated in a non-phytotoxic solvent mixture which included a surfactant. At the same time, plants selected from these crop and weed species and also winter barley (Hordeum vulgare), canarygrass (Phalaris minor), and chickweed (Stellaria media) were treated with postemergence applications of some of the test chemicals formulated in the same manner. Plants ranged in height from 2 to 18 cm (1- to 4-leaf stage) for postemergence treatments. […] At time of treatment, test pots were flooded to 3 cm above the soil surface, treated by application of test compounds directly to the paddy water, and then maintained at that water depth for the duration of the test. […] A dash (-) response means no test result.

[11] = tested on: redroot pigweed; assay: Test A pre-/postemergence greenhouse test; format: in vivo, Amaranthus retroflexus; conditions: for Pigweed plant response rating: 0 to 100 scale
Procedure, shortened: as §2

[12] = tested on: lambsquarters; assay: Test C pre-/postemergence test; format: in vivo, Chenopodium album; conditions: for Plant response rating, Lambsquarters: scale 0 to 100, 0 no effect, 100 complete control
Procedure, shortened: as §1

[13] = tested on: giant foxtail; assay: Test C pre-/postemergence test; format: in vivo, Setaria faberii; conditions: for Plant response rating, Foxtail, Giant: scale 0 to 100, 0 no effect, 100 complete control
Procedure, shortened: as §1

[14] = tested on: morningglory; assay: Test A pre-/postemergence greenhouse test; format: in vivo, Ipomoea spp.; conditions: for Morningglory plant response rating: 0 to 100 scale
Procedure, shortened: as §2

[15] = tested on: kochia; assay: Test C pre-/postemergence test; format: in vivo, Kochia scoparia; conditions: for Plant response rating, Kochia: scale 0 to 100, 0 no effect, 100 complete control
Procedure, shortened: as §1

[16] = tested on: common (oilseed) sunflower; assay: Test C pre-/postemergence test; format: in vivo, Helianthus annuus; conditions: for Sunflower plant response rating: preemergence, scale 0 (no effect) to 100 (complete control)
Procedure, shortened: as §1

[17] = tested on: wild oat; assay: Test C pre-/postemergence test; format: in vivo, Avena fatua; conditions: Postemergence; for Plant response rating, Oat, Wild: scale 0 to 100, 0 no effect, 100 complete control
Procedure, shortened: as §1

[18] = tested on: wheat; assay: Test C pre-/postemergence test; format: in vivo, Triticum aestivum; conditions: Postemergence; for Plant response rating, Wheat: scale 0 to 100, 0 no effect, 100 complete control
Procedure, shortened: as §1

[19] = Postemergence, 125 g ai/ha, 0 is no effect, 100 is complete control
[20] = Postemergence, 500 g ai/ha, 0 is no effect, 100 is complete control
[21] = Preemergence, 125 g ai/ha, 0 no effect, 100 complete control
[22] = Preemergence, 500 g ai/ha, 0 to 100 scale where 0 is no effect and 100 is complete control
[23] = 31 g ai/ha, Preemergence, scale 0 to 100
[24] = 62 g ai/ha, preemergence, scale 0 (no effect) to 100 (complete control)
[25] = preemergence, 125 g ai/ha, scale 0 (no effect) to 100 (complete control)

`Cn1nc(C(F)(F)F)c(C[S+]([O-])c2ccc(Cl)c[n+]2[O-])c1OC(F)F` (stereo not drawn) [Compound 6] was tested, and the “Surinam Grass plant response rating” value ([1]; 62 g ai/ha) was 98, the “Plant response rating (0 to 100), Surinam Grass” value ([1]; Postemergence, 31 g ai/ha) was 0 and the “Plant response rating (0 to 100), Surinam Grass” value ([1]; Postemergence, 62 g ai/ha) was 0. For the same molecule, the “Plant response rating, Surinam Grass” value ([1]; Postemergence, 125 g ai/ha) was 30, the “Plant response rating, Surinam Grass” value ([1]; Postemergence, 250 g ai/ha) was 30 and the “Plant response rating (0 to 100), Surinam Grass” value ([1]; Preemergence, 250 g ai/ha) was 100. The “Surinam Grass plant response rating” value ([1]; 125 g ai/ha) was 100, the “Wheat plant response rating” value [2, 19] was 30 and the “Wheat plant response rating” value [2, 20] was 70. For the same molecule, the “Wheat plant response rating” value [2, 21] was 90, the “Plant response rating, Wheat” value [2, 22] was 90 and the “Cupgrass, Woolly plant response rating” value [3, 23] was 90. The “Cupgrass, Woolly plant response rating” value [3, 24] was 100, the “Plant response rating (0 to 100), Cupgrass, Woolly” value ([3]; Postemergence, 31 g ai/ha) was 0 and the “Plant response rating, Cupgrass, Woolly” value ([3]; Postemergence, 62 g ai/ha) was 0. For the same molecule, the “Plant response rating, Cupgrass, Woolly” value ([3]; Postemergence, 125 g ai/ha) was 50, the “Plant response rating, Cupgrass, Woolly” value ([3]; Postemergence, 250 g ai/ha) was 55 and the “Plant response rating (0 to 100), Cupgrass, Woolly” value ([3]; Preemergence, 250 g ai/ha) was 100. For the same molecule, the “Cupgrass, Woolly plant response rating” value [3, 25] was 100, the “Plant response rating (0 to 100), Blackgrass” value ([4]; 31 g ai/ha) was 0 and the “Plant response rating, Blackgrass” value ([4]; 62 g ai/ha) was 50. The “Plant response rating, Blackgrass” value ([4]; 125 g ai/ha) was 50, the “Plant response rating, Blackgrass” value ([4]; 250 g ai/ha) was 50 and the “Foxtail, Giant plant response rating” value [5, 19] was 70. The “Foxtail, Giant plant response rating” value [5, 20] was 90, the “Foxtail, Giant plant response rating” value [5, 21] was 100 and the “Plant response rating, Foxtail, Giant” value [5, 22] was 100. For the same molecule, the “Plant response rating (0 to 100), Bromegrass, Downy” value ([6]; 31 g ai/ha) was 0, the “Plant response rating, Bromegrass, Downy” value ([6]; 62 g ai/ha) was 30 and the “Plant response rating, Bromegrass, Downy” value ([6]; 125 g ai/ha) was 50. For the same molecule, the “Plant response rating, Bromegrass, Downy” value ([6]; 250 g ai/ha) was 80, the “Cocklebur plant response rating” value [7, 23] was 0 and the “Cocklebur plant response rating” value [7, 24] was 0. For the same molecule, the “Plant response rating (0 to 100), Cocklebur” value ([7]; Postemergence, 31 g ai/ha) was 0, the “Plant response rating, Cocklebur” value ([7]; Postemergence, 62 g ai/ha) was 0 and the “Plant response rating, Cocklebur” value ([7]; Postemergence, 125 g ai/ha) was 0. For the same molecule, the “Plant response rating, Cocklebur” value ([7]; Postemergence, 250 g ai/ha) was 0, the “Plant response rating (0 to 100), Cocklebur” value ([7]; Preemergence, 250 g ai/ha) was 0 and the “Cocklebur plant response rating” value [7, 25] was 0. For the same molecule, the “Velvetleaf plant response rating” value [8, 24] was 0, the “Plant response rating (0 to 100), Velvetleaf” value ([8]; Postemergence, 31 g ai/ha) was 0 and the “Plant response rating (0 to 100), Velvetleaf” value ([8]; Postemergence, 62 g ai/ha) was 10. For the same molecule, the “Plant response rating, Velvetleaf” value ([8]; Postemergence, 125 g ai/ha) was 30, the “Plant response rating, Velvetleaf” value ([8]; Postemergence, 250 g ai/ha) was 50 and the “Plant response rating (0 to 100), Velvetleaf” value ([8]; Preemergence, 250 g ai/ha) was 40. The “Ragweed plant response rating” value [9, 23] was 0, the “Ragweed plant response rating” value [9, 24] was 0 and the “Plant response rating (0 to 100), Ragweed” value ([9]; Postemergence, 31 g ai/ha) was 0. For the same molecule, the “Plant response rating (0 to 100), Ragweed” value ([9]; Postemergence, 62 g ai/ha) was 0, the “Plant response rating, Ragweed” value ([9]; Postemergence, 125 g ai/ha) was 10 and the “Plant response rating, Ragweed” value ([9]; Postemergence, 250 g ai/ha) was 50. For the same molecule, the “Plant response rating (0 to 100), Ragweed” value ([9]; Preemergence, 250 g ai/ha) was 40, the “Ragweed plant response rating” value [9, 25] was 0 and the “Nightshade plant response rating” value [10, 24] was 98. For the same molecule, the “Plant response rating (0 to 100), Nightshade” value ([10]; Preemergence, 250 g ai/ha) was 100, the “Pigweed plant response rating” value [11, 19] was 100 and the “Pigweed plant response rating” value [11, 20] was 100. The “Pigweed plant response rating” value [11, 21] was 100, the “Plant response rating, Pigweed” value [11, 22] was 100 and the “Lambsquarters plant response rating” value [12, 24] was 0. The “Plant response rating (0 to 100), Lambsquarters” value ([12]; Postemergence, 31 g ai/ha) was 0, the “Plant response rating, Lambsquarters” value ([12]; Postemergence, 62 g ai/ha) was 10 and the “Plant response rating, Lambsquarters” value ([12]; Postemergence, 125 g ai/ha) was 10. For the same molecule, the “Plant response rating, Lambsquarters” value ([12]; Postemergence, 250 g ai/ha) was 10, the “Plant response rating (0 to 100), Lambsquarters” value ([12]; Preemergence, 250 g ai/ha) was 100 and the “Foxtail, Giant plant response rating” value [13, 23] was 50. For the same molecule, the “Foxtail, Giant plant response rating” value [13, 24] was 95, the “Plant response rating (0 to 100), Foxtail, Giant” value ([13]; Postemergence, 31 g ai/ha) was 0 and the “Plant response rating, Foxtail, Giant” value ([13]; Postemergence, 62 g ai/ha) was 30. For the same molecule, the “Plant response rating, Foxtail, Giant” value ([13]; Postemergence, 125 g ai/ha) was 60, the “Plant response rating, Foxtail, Giant” value ([13]; Postemergence, 250 g ai/ha) was 70 and the “Plant response rating (0 to 100), Foxtail, Giant” value ([13]; Preemergence, 250 g ai/ha) was 100. The “Foxtail, Giant plant response rating” value [13, 25] was 98, the “Morningglory plant response rating” value [14, 19] was 80 and the “Morningglory plant response rating” value [14, 20] was 90. The “Morningglory plant response rating” value [14, 21] was 90, the “Plant response rating, Morningglory” value [14, 22] was 100 and the “Kochia plant response rating” value [15, 24] was 0. The “Plant response rating (0 to 100), Kochia” value ([15]; Postemergence, 31 g ai/ha) was 0, the “Plant response rating, Kochia” value ([15]; Postemergence, 62 g ai/ha) was 0 and the “Plant response rating, Kochia” value ([15]; Postemergence, 125 g ai/ha) was 0. For the same molecule, the “Plant response rating, Kochia” value ([15]; Postemergence, 250 g ai/ha) was 0, the “Plant response rating (0 to 100), Kochia” value ([15]; Preemergence, 250 g ai/ha) was 0 and the “Sunflower plant response rating” value ([16]; 62 g ai/ha) was 0. The “Plant response rating (0 to 100), Sunflower” value ([16]; Preemergence, 250 g ai/ha) was 10, the “Sunflower plant response rating” value ([16]; 125 g ai/ha) was 5 and the “Plant response rating (0 to 100), Oat, Wild” value ([17]; 31 g ai/ha) was 20. For the same molecule, the “Plant response rating, Oat, Wild” value ([17]; 62 g ai/ha) was 50, the “Plant response rating, Oat, Wild” value ([17]; 250 g ai/ha) was 60 and the “Plant response rating (0 to 100), Wheat” value ([18]; 31 g ai/ha) was 20. For the same molecule, the “Plant response rating (0 to 100), Wheat” value ([18]; 62 g ai/ha) was 20, the “Plant response rating, Wheat” value ([18]; 125 g ai/ha) was 20 and the “Plant response rating, Wheat” value ([18]; 250 g ai/ha) was 25.
